Columns and labels:
Assay in all cases: relative viability (nuclei count vs DMSO), 5 days (fraction); higher = more cells survive
Seliciclib + Palbociclib = compound: CC[C@H](CO)Nc1nc(NCc2ccccc2)c2ncn(C(C)C)c2n1 [Seliciclib] + CC(=O)c1c(C)c2cnc(Nc3ccc(N4CCNCC4)cn3)nc2n(C2CCCC2)c1=O [Palbociclib] (partner 0.5 µM)
How it was run: (§1)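 A single step with final 0.05% Triton X-100, 1% formaldehyde and 1 ug/ml Hoechst fixed the cells and stained nuclei 5 days after treatment. Lung cancer cell lines in 1536-well plates had been treated by pin tool the day after seeding with one drug alone or a fixed anchor-drug dose plus five library-drug doses (not always all listed) in √10 steps, and nuclei were counted on 4× images. Relative viability is the ratio of nuclei in treated wells to nuclei in vehicle wells, taken as the median of duplicate plates.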

Seliciclib + Crizotinib = compound: CC[C@H](CO)Nc1nc(NCc2ccccc2)c2ncn(C(C)C)c2n1 [Seliciclib] + C[C@@H](Oc1cc(-c2cnn(C3CCNCC3)c2)cnc1N)c1c(Cl)ccc(F)c1Cl [Crizotinib] (partner 1 µM)
How it was run: as §1

Seliciclib + AZD7762 = compound: CC[C@H](CO)Nc1nc(NCc2ccccc2)c2ncn(C(C)C)c2n1 [Seliciclib] + NC(=O)Nc1cc(-c2cccc(F)c2)sc1C(=O)N[C@H]1CCCNC1 [AZD7762] (partner 0.2 µM)
How it was run: as §1

Seliciclib + Vorinostat = compound: CC[C@H](CO)Nc1nc(NCc2ccccc2)c2ncn(C(C)C)c2n1 [Seliciclib] + O=C(CCCCCCC(=O)Nc1ccccc1)NO [Vorinostat] (partner 1 µM)
How it was run: as §1

Cell Line | relative viability (Seliciclib + Palbociclib; first compound 0.08 µM) | relative viability (Seliciclib + Palbociclib; first compound 0.253 µM) | relative viability (Seliciclib + Palbociclib; first compound 0.8 µM) | relative viability (Seliciclib + Palbociclib; first compound 2.53 µM) | relative viability (Seliciclib + Palbociclib; first compound 8 µM) | relative viability (Seliciclib + Crizotinib; first compound 0.08 µM) | relative viability (Seliciclib + Crizotinib; first compound 0.253 µM) | relative viability (Seliciclib + Crizotinib; first compound 0.8 µM) | relative viability (Seliciclib + Crizotinib; first compound 2.53 µM) | relative viability (Seliciclib + Crizotinib; first compound 8 µM) | relative viability (Seliciclib + AZD7762; first compound 0.08 µM) | relative viability (Seliciclib + AZD7762; first compound 0.253 µM) | relative viability (Seliciclib + AZD7762; first compound 0.8 µM) | relative viability (Seliciclib + AZD7762; first compound 2.53 µM) | relative viability (Seliciclib + AZD7762; first compound 8 µM) | relative viability (Seliciclib + Vorinostat; first compound 0.08 µM) | relative viability (Seliciclib + Vorinostat; first compound 0.253 µM) | relative viability (Seliciclib + Vorinostat; first compound 0.8 µM) | relative viability (Seliciclib + Vorinostat; first compound 2.53 µM) | relative viability (Seliciclib + Vorinostat; first compound 8 µM)
NCI-H2085 | 0.472 | 0.44 | 0.419 | 0.41 | 0.314 | 0.866 | 0.767 | 0.9 | 0.862 | 0.706 | 0.948 | 0.962 | 0.998 | 1.03 | 0.868 | 0.763 | 0.762 | 0.756 | 0.74 | 0.556
NCI-H2087 | 0.28 | 0.288 | 0.241 | 0.16 | 0.151 | 0.909 | 0.833 | 0.956 | 0.828 | 0.846 | 1.28 | 1.46 | 1.33 | 1.24 | 1.11 | 0.802 | 0.677 | 0.686 | 0.725 | 0.314
NCI-H2126 | 0.345 | 0.332 | 0.358 | 0.315 | 0.338 | 0.988 | 0.979 | 0.965 | 0.992 | 0.861 | 1.04 | 0.987 | 0.994 | 0.822 | 0.909 | 0.806 | 0.783 | 0.579 | 0.375 | 0.611
NCI-H2170 | 0.389 | – | 0.372 | 0.364 | 0.308 | 1.1 | 0.873 | 1.18 | 1.4 | 1.11 | 0.841 | – | 0.877 | 0.979 | 0.921 | 0.742 | – | 0.774 | 0.687 | 0.663
NCI-H2347 | 0.44 | 0.439 | 0.404 | 0.406 | 0.433 | 0.711 | 0.741 | 0.742 | 0.763 | 0.595 | 0.817 | 0.759 | 0.745 | 0.763 | 0.865 | 0.595 | 0.656 | 0.443 | 0.566 | 0.432
NCI-H2405 | 0.485 | 0.483 | 0.552 | 0.361 | 0.452 | 0.755 | 0.841 | 0.807 | 0.877 | 0.794 | 0.8 | 0.757 | 0.831 | 0.584 | 0.648 | 1.06 | 1.2 | 0.98 | 0.742 | 0.739
NCI-H3122 | 0.179 | 0.135 | 0.172 | 0.172 | 0.182 | 0.294 | 0.258 | 0.311 | 0.231 | 0.301 | 0.935 | 0.939 | 0.915 | 0.959 | 0.897 | 0.925 | 0.979 | 0.759 | 1.09 | 0.86
PC-3 [JPC-3] | 0.477 | 0.615 | 0.543 | 0.498 | 0.476 | 0.998 | 0.994 | 0.95 | 0.921 | 0.861 | 0.994 | 1 | 0.77 | 0.617 | 0.718 | 0.796 | 0.957 | 0.876 | 0.601 | 0.633
PC-14 | 0.444 | 0.65 | 0.517 | 0.391 | 0.275 | 0.865 | 0.846 | 0.78 | 0.991 | 0.759 | 0.358 | 0.35 | 0.358 | 0.354 | 0.331 | 0.663 | 0.747 | 0.744 | 0.644 | 0.625
RERF-LC-KJ | 1 | 0.925 | 1.03 | 1.07 | 0.908 | 0.803 | 0.787 | 0.785 | 0.85 | 0.786 | 0.861 | 0.894 | 0.992 | 0.837 | 0.789 | 0.698 | 0.641 | 0.661 | 0.55 | 0.439
